Experimental data published in PMC11237035, “Glutathione determines chronic myeloid leukemia vulnerability to an inhibitor of CMPK and TMPK” (Communications Biology, 2024).
Several values for one entry are separate records, joined by “and”; a condition that tells them apart may be missing. Identical values can stand only once. Blank lines part the entries; values can stand above or below the molecule they belong to.

Experiments:
[1] = tested on: untransformed 32D cells; assay: CCK-8 cell viability assay, untransformed 32D cells; format: cell-based, mouse; conditions: for viability (0 = 100): Untransformed
Description: After 72 h, viability assays were performed.
3 independent experiments. Asterisks denote ***p<0.001 from non-paired two-tailed

[2] = tested on: T315I-Bcr-Abl-32D cells; assay: CCK-8 cell viability assay, T315I-Bcr-Abl-32D cells; format: cell-based, mouse
[3] = tested on: T315I-Bcr-Abl-32D cells; assay: GSH/GSSG-Glo measurement, T315I-Bcr-Abl-32D cells; format: cell-based, mouse
Excerpt: (§1) The GSH/GSSG-Glo™ Assay Kit (Promega, V6611) was used for luminescent-based measurement of cellular GSH and GSSG by Tecan Spark 10 microplate reader.

[4] = tested on: T315I-Bcr-Abl-32D cells; assay: DNA fiber assay (replication speed), T315I-Bcr-Abl-32D cells; format: cell-based, mouse; conditions: T315I-Bcr-Abl-32D cells, BSO 12.5 μM, 16 h
Description: (§2) The workflow of DNA fiber labeling (Right). The representative labeled fibers are shown below. Replication speed in kb/min was calculated by the measured length of IdU (green) linking to CldU (red) in μm with a conversion factor of 0.34 μm/kb divided by the duration of the labeling pulse (Scale bar = 10 μm). The gray triangle indicates the boundary between red fluorescence and green fluorescence. c The measurement of intracellular ROS by the fluorescence intensity of CellROX Green staining using flow cytometric analysis. Data are presented as mean intensity relative to untransformed 32D cells. d, e The measurement of GSSG and GSH. […] Schematic illustration of the metabolic path U-^13C glutamine incorporation into the GSH (left). Gray and white circles indicate ^13C-label, and unlabeled ^12C, respectively. The traced isotopologue abundance of GSH is shown (right).
(§3) The DNA fiber assay was performed as described previously. Briefly, cells were sequentially treated with the medium containing 25 μM of CldU (Sigma-Aldrich, C6891) and then 250 μM of IdU (Sigma-Aldrich, I7125) for 20 min. After washing, cells were suspended in PBS (1000 cells/ μL). 2 μL of cell suspension was spotted on slides. […] The lengths of red- and green-labeled fibers were determined by FluoView3.0 software (Olympus).

[5] = tested on: WT-Bcr-Abl-32D cells; assay: CCK-8 cell viability assay, WT-Bcr-Abl-32D cells; format: cell-based, mouse; conditions: WT-Bcr-Abl, single replicates
[6] = target: T1, hTMPK (Homo sapiens, UniProt P23919); assay: biochemical
T1 sequence (P23919 1-212): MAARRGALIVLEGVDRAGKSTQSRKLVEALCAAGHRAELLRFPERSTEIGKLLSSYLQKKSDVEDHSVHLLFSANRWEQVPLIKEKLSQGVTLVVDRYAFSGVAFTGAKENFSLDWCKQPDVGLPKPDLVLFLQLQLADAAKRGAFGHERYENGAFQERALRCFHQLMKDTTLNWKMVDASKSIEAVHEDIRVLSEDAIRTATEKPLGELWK

[7] = tested on: WT-Bcr-Abl-32D cells; assay: GSH/GSSG-Glo measurement, WT-Bcr-Abl-32D cells; format: cell-based, mouse
Excerpt: as §1

[8] = tested on: WT-Bcr-Abl-32D cells; assay: DNA fiber assay (replication speed), WT-Bcr-Abl-32D cells; format: cell-based, mouse; conditions: NAC 1 mM, 16 h
Description: as §2, §3

Compound: CCCCS(=N)(=O)CCC(N)C(=O)O (centres unmarked) [BSO, buthionine sulphoximine]
- viability (vehicle, 0 = 100) ([1]; 32D cells, BSO 12.5 μM alone (JMF4073 0), single replicates): 83.2384 and 115 and 94.5481
- cell viability (% of NT, 0 JMF4073), Figure 5e ([2]; T315I, BSO alone (JMF4073 0), single replicates): 99.4456 and 92 and 86.6884
- growth of cells, BSO alone ([2]; T315I-Bcr-Abl cells, BSO treatment alone): did not suppress the growth
- GSH% ([3]; Figure 5c, T315I-Bcr-Abl, BSO vs NT = 100, single replicates): 10.69% and 9.7% and 22.3%
- cellular level of GSH ([3]; T315I-Bcr-Abl-32D cells, BSO 12.5 μM, 16 h): reduced
- lengths of replication tracks [4]: reduced

Compound: O=c1[nH]cc(F)c(=O)[nH]1 [Compound 5-FU, 5-Fluorouracil]
- viability (0 = 100) ([1]; 5-FU 50 nM, single replicates): 73.4167 and 117.13 and 106.182 and 85.6469
- viability (0 = 100) ([1]; 5-FU 100 nM, single replicates): 72.9576 and 93.7766 and 105.148 and 51.3899
- viability (0 = 100) ([1]; 5-FU 200 nM, single replicates): 35.4417 and 92.003 and 84.6699 and 48.1556
- viability (0 = 100) ([1]; 5-FU 400 nM, single replicates): 6.096 and 36.2787 and 21.177 and 24.9913
- sensitivity compared among WT-, T315I-Bcr-Abl-32D and untransformed 32D progenitor cells ([1]; viability assays): similar
- viability (0 = 100) ([5]; 5-FU 50 nM): 107.177 and 94.9972 and 84.194 and 79.9956
- viability (0 = 100) ([5]; 5-FU 100 nM): 65.5177 and 99.8323 and 74.733 and 69.6887
- viability (0 = 100) ([5]; 5-FU 200 nM): 39.9892 and 67.384 and 54.7054 and 48.7266
- viability (0 = 100) ([5]; 5-FU 400 nM): 24.7745 and 56.1347 and 30.6822 and 26.6217
- viability at 0.05 µM ([2]; Mus musculus, T315I-Bcr-Abl, 5-FU 50 nM, single replicates, read-out: viability (0 = 100)): 84.6%
- viability at 0.4 µM ([2]; Mus musculus, T315I-Bcr-Abl, 5-FU 400 nM, single replicates, read-out: viability (0 = 100)): 15%
- viability (0 = 100) ([2]; T315I-Bcr-Abl, 5-FU 50 nM, single replicates): 83.5736 and 80.5085 and 76.4058
- viability (0 = 100) ([2]; T315I-Bcr-Abl, 5-FU 100 nM, single replicates): 62.3323 and 96.9038 and 91.1488 and 80.2051
- viability (0 = 100) ([2]; T315I-Bcr-Abl, 5-FU 200 nM, single replicates): 35.7891 and 57.1142 and 42.6177 and 58.9854
- viability (0 = 100) ([2]; T315I-Bcr-Abl, 5-FU 400 nM, single replicates): 14.7128 and 7.825 and 11.0955

- IC50 [6]: 0.29 µM
Compound: CC(C)(C)OC(=O)N1CCN(C(=O)Cn2sc3ccccc3c2=O)CC1 [JMF2977]

Compound: CC(=O)N[C@@H](CS)C(=O)O [NAC, N-Acetyl-Cysteine]
- cell viability (% of NT vehicle), Figure 5h ([5]; NAC with vehicle): 96.5592 and 69.512 and 104.601
- GSH% ([7]; Figure 5f, WT-Bcr-Abl, NAC vs NT = 100, single replicates): 161.382% and 219.818% and 187.248% and 315.164%
- cellular GSH level ([7]; WT-Bcr-Abl-32D cells, NAC 1 mM, 16 h): increased the cellular GSH level
- lengths of replication tracks [8]: increased lengths of replication tracks
